The values below come from patent publication US4044043A, “Derivatives of 9-oxo-13-trans-prostenoic acid esters” (American Cyanamid Company, priority 1975, dated 1977).

Test [1] has as its system bronchospasms elicited by histamine. As to the kind of experiment: Bronchodilator Activity (Konzett Assay) against histamine. The test is classed as in vivo, guinea pigs. Particulars: Cavia porcellus; three logarithmic cumulative intravenous doses. Here is the method:
(§1) Bronchodilator activity was determined in guinea pigs against bronchospasms elicited by intravenous injections of 5-hydroxytryptamine, histamine or acetylcholine by the Konzett procedure. [See J. Lulling, P. Lievens, F. El Sayed and J. Prignot, Arzeneimittel-Forschung, 18, 995 (1968)]. In Table IIIC which follows bronchodilator activity for representative compounds of this invention against one or more of the three spasmogenic agents is expressed as an ED50 determined from the results obtained with three logarithmic cumulative intravenous doses.

Test [2] relates to bronchospasms elicited by acetylcholine. Put plainly: Bronchodilator Activity (Konzett Assay) against acetylcholine. The test is classed as in vivo, guinea pigs. The settings on record: Cavia porcellus; three logarithmic cumulative intravenous doses. Here is the method:
as §1

For test [3], the system named is bronchospasms elicited by 5-hydroxytryptamine. As to the kind of experiment: Bronchodilator Activity (Konzett Assay) against 5-hydroxytryptamine. Type of test: in vivo, guinea pigs. Particulars: Cavia porcellus; three logarithmic cumulative intravenous doses. Here is the method:
as §1

A further test deals with gastric acid secretion. Put plainly: Inhibition of Gastric Acid Secretion (Pylorous-Ligated Rat), Shay rat procedure. Type of test: in vivo, rats (male, CFE strain). The settings on record: 100 mg./kg. intraduodenal, read-out: % Inhibition of Control Gastric Acid Secretion. The text has this: The novel compounds of the present invention are also effective inhibitors of gastric acid secretion and of ulcer development in experimental animals, and thus are potentially valuable as agents for the control of gastric acid secretion and of gastric erosion and as anti-ulcer agents. Gastric acid secretion inhibitory action is usually measured by the Shay rat procedure ^(1,2) with some modifications as follows. 6 1. Shay et al., Gastroenterology, 5, 43 (1945). 6 2. Shay et al., Gastroenterology, 26, 906 (1954).
The rats (male, CFE strain) were starved for 48 hours (water was given ad libitum) to permit evacuation of stomach contents. On the morning of the experiment, under ether anesthesia, the abdominal region was shaved and a midline incision (1-1 1/2 inch) was made with a scalpel. With the help of a closed curved hemostat the duodenum was picked up. Upon getting the duodenum into view fingers were used to pull the stomach through the opening, the stomach was then gently manipulated with fingers to rid stomach of air and residual matter which were pushed through the pylorus. Two 5-inch sutures were drawn under the pyloric-duodenal puncture. A ligature, at the juncture, was formed with one of the threads. The second ligature was also formed but not tightened.
The test compound or the vehicle, usually 1 ml./100 g. body weight, were injected into the duodenum as close as possible to the first ligature. After injection the second ligature was tightened below the injection site to minimize leakage. The stomach was placed back through the opening into the abdominal cavity, the area of incision was washed with saline and the incision was closed with autoclips. (Ocasionally instead of an intraduodenal injection, animals were dosed by the oral or subcutaneous route. In the latter case, dosing was done thirty to sixty minutes before the operation).
The abdominal cavity was exposed by cutting with scissors and the esophagus close to the stomach was clamped off with a hemostat, the stomach was removed by cutting above the hemostat (the esophagus was cut) and between the two sutures. Extraneous tissue was removed, the stomach washed with saline and blotted on gauze. A slit was carefully made in the stomach which was held over a funnel and the contents were collected in a centrifuge tube. The stomach was further cut along the outside edge and turned inside out. Two ml. of water were used to wash the stomach contents into the respective centrifuge tube. The combined stomach contents and wash were then centrifuged out for 10 minutes in the International Size 2 Centrifuge (setting at 30). The supernatant was collected, volume measured and recorded, 2 drops of phenolphthalein indicator (1% in 95% ethanol) were added and the solution was titrated with 0.02N NaOH (or with 0.04N NaOH when large volumes of stomach contents were encountered) to pH 8.4 (because of usual coloring of the stomach contents, phenolphthalein was only used to permit visual indication that the end point was near) and the amount of acid present was calculated.
Compounds inducing inhibition of gastric acid secretion of 20% or more were considered active. In a representative operation, and merely by way of illustration, the results obtained with this assay with typical compounds of the present invention are given in Table IIIA.

For test [4], the system named is Mycobacterium smegmatis ATCC 606. Put plainly: agar-dilution streak-plate antimicrobial assay. Particulars: Mycolicibacterium smegmatis, ATCC606, read-out: Minimal inhibitory conc. (6). Type of test: cell-based. As to the method: The novel compounds of the present invention are also useful as antimicrobial agents. […] In this assay, the compounds to be tested are made up to contain 2.5 mg. of test compound per milliliter of solution. Observing sterile techniques, two-fold serial dilution are made of each test solution. One milliliter of each of the original solutions and of each of the serial dilutions is then added to 9 ml. of warm sterile nutrient agar capable of supporting growth of the bacterial test cultures. A second set of agar dilutions is prepared identical to the first except that the nutrient agar is designed to support the growth of the fungal test cultures. […] The test bacteria and yeast-like fungi are prepared for use by growing in broth overnight. The spores of the filamentous fungi are harvested from mature agar slant cultures and are suspended in sterile physiological saline solution. A loopful of each of the resulting live suspensions is then, still employing sterile techniques, streaked upon the surfaces of each of the agar plates and the resulting streaked plates are then incubated. After an appropriate period of time, each of the streaks on each of the plates is inspected visually and the extent, if any, of bacterial or fungal growth is noted. The minimal inhibitory concentration (expressed in micrograms per milliliter) is defined as the concentration of test compound causing complete inhibition of growth of any particular organism. In a representative operation, and merely by way of illustration, the minimal inhibitory concentration of typical compounds of the present invention against a variety of test organisms as determined in the above-described assay are set forth in Tables II and III below: […]

Another test deals with diastolic blood pressure. Put plainly: Prostaglandin-like hypotensive activity in anesthetized rats (minimal dose for about 10 mm. decrease in diastolic blood pressure). Type of test: in vivo, Male Wistar strain rats. The settings on record: Rattus norvegicus; intravenous; decrease of about 10 mm. in diastolic blood pressure. Here is the method:
This procedure is a modification of the technique described by Pike et al., Prostaglandins, Nobel Symposium 2, Stockholm, June, 1966; p, 165.
Male Wistar strain rats (Royal Hart Farms) averaging approximately 250 grams in weight were fastened to rat boards in a supine position by means of canvas vests and limb ties. The femoral area was infiltrated subcutaneously with lidocaine and the iliac artery and vein exposed and cannulated. Arterial blood pressure (systolic/diastolic) was recorded using a Statham P23 Db pressure transducer-Offner dynograph system. To obtain a stable blood pressure, the animals were anesthetized before use with pentobarbital, 30 mg./kg. of body weight intravenously, and also were given hexamethonium bitartrate, 2 mg./kg. of body weight intravenously. The test compounds were prepared by ultrasonic dispersion in a saline-Tween 80 ® vehicle. A constant intravenous dose volume of 0.5 ml. was administered and test doses ranged from 0.1 to 10.0 mg./kg. of body weight. Increasing or decreasing doses were selected depending on the dose response obtained. In Table I below are set forth the minimal doses required to produce a decrease of about 10 mm. in diastolic blood pressure for typical compounds of the present invention.

The subject of test [5] is dl-PGE1-induced contraction of gerbil colon. Put plainly: Inhibition of dl-PGE1-Induced Contraction of Gerbil Colon (prostaglandin antagonist action). The test is classed as cell-based, gerbils (Meriones unguiculatus). The settings on record: Meriones unguiculatus, 1 min; 200 ng./ml. dl-PGE1; read-out: ID50 vs. 200 ng. of PGE1/ml. As to the method:
The compounds of this invention are also useful as antagonists of prostaglandin action and accordingly they are potentially useful as anti-inflammatory agents, and as agents for the treatment of periodontal diseases and diarrhea. Testing for prostaglandin antagonist action is carried out in the following manner. Sections of ascending colon, approximately 20 mm. long, from mature male gerbils (Meriones unguiculatus) weighing 70-80 g. were mounted in De Jalon's solution (154 mM NaCl; 5.95 mM NAHCO3; […], 5.64 mM KC and .27 mM CaCl2 in 20 ml. tissue baths) (L and K Glass Co., Lynnhurst, N.J.). The medium was continually gassed with a mixture of 95% 02 -5% CO2 and maintained at 37° C. The tissues were suspended via silk suture threads between a glass hook at the base and a model FT .03C force displacement transducer (Grass Instruments, Quincy, Massachusetts). Contractions were recorded on a Poly-Viso ® polygraph (Sanborn Co., Cambridge, Massachusetts). After mounting, tissues were allowed to stabilize 15-20 minutes during which time adjustments were made to establish and maintain a 0.5 g. resting tension on the muscle. Thereafter, test cycles of 3-5 minutes were begun and consisted of a 1 minute exposure to the potential antagonist, if called for, followed by a 1 minute exposure to the prostaglandin agonist, a 15-30 sec. washout and a recovery period of 2-2.5 minutes. […] During the washout period, the tissue was rinsed with a measured amount equalling 8 volumes of medium. Muscle relaxation was virtually complete by the end of the washout period. During preliminary tests it was noted that a final concentration of 200 ng./ml. of a racemic mixture of synthetic prostaglandin-E1 (dl-PGE1) produced maximal muscle contraction. Following stabilization, muscles were exposed 2 to 3 times to this concentration of dl-PGE1 until a consistent response was recorded. Once maximal responses were established, test cycles with potential antagonists were commenced and were followed alternately with prostaglandin-only test cycle. […] The contraction of the muscle induced by 200 ng./ml. dl-PGE1 following exposure to a given concentration of the potential antagonist was always compared to the response of the tissue to that level of dl PGE1 in the immediately preceding cycle. Using a series of potential antagonist concentrations, an approximate ID50 (concentration at which 50% inhibition was observed) was established. The compounds were also tested against a sub-maximal prostaglandin challenge (20 ng./ml. dl-PGE1) in which case activity is reported in terms of a 50% inhibition of maximum response.

SMILES strings stand for the structures. In brackets after ≈: the same amount, converted by molar mass. Some results are limits rather than exact numbers.

`CCCCCCC=CC1CCC(O)(c2ccccc2)C1CCCCCCC(=O)O` (stereo not drawn) [9-hydroxy-9-phenyl-13-trans-prostenoic acid]: the median effective dose (ED50) (usually the dose that gives a 50% effect, or the effect in half of the subjects) in test [1] is 5.27 mg/kg; in test [2], > 10 mg/kg; in test [3], 2.44 mg/kg.
As for `CCOC(=O)CCCCCC[C@H]1C(=O)CC[C@@H]1/C=C/CCC(C)C` (relative stereo) [ethyl 17-methyl-9-oxo-19,10-dinor-13-trans-rpostenoate], in the test with gastric acid secretion, the inhibition in vivo at 100 mg/kg is 21%. Besides, the MIC in test [4] was found to be 62 µg/mL (≈ 184 µM). Besides, the minimal effective dose (usually the lowest level tested that produced the effect sought) with diastolic blood pressure came to 10 mg/kg.
In the case of `CC(C)C/C=C/[C@H]1CCC(O)[C@@H]1CCCCCCC(=O)O` (stereo partly drawn) [9α/β-hydroxy-16-methyl-18,19,20-trinor-13-trans-prostenoic acid], the values for the 50% effective dose (ED50) in test [1], in test [2] and in test [3] were 3.47 mg/kg, > 10 mg/kg and > 10 mg/kg, respectively.
For the compound `CCCCCC/C=C/[C@@H]1CCC(=O)[C@H]1CCCCCCC(=O)Oc1cccnc1` (relative stereo) [3-pyridyl 9-oxo-13-trans-prostenoate, 3'-pyridyl 9-oxo-13-trans-prostenoate], the MIC in test [4] is 50 µg/mL (≈ 125 µM). For the same compound, in test [5], the IC50 was 12 µg/mL (≈ 30 µM). The compound also gave a minimal effective dose with diastolic blood pressure of 0.4 to 4 mg/kg.
On to `CCOC(=O)CCCCCC[C@H]1C(=O)CC[C@@H]1/C=C/CCCCCCI` (relative stereo) [ethyl 20-iodo-9-oxo-13-trans-prostenoate], for which, in the test with gastric acid secretion, the inhibition in vivo at 100 mg/kg came out at 42%. Further, the MIC in test [4] is 62 µg/mL (≈ 130 µM).
On to `CCOC(=O)CCCCCC[C@H]1C(=O)CC[C@@H]1/C=C/CCCSCC` (relative stereo) [ethyl 9-oxo-18-thia-13-trans-prostenoate], for which the MIC in test [4] amounted to 250 µg/mL (≈ 678 µM). The compound also displayed a minimal effective dose in the test with diastolic blood pressure of 2 mg/kg.
As for `CCCCCC/C=C/[C@@H]1CCC(=NNc2ccc(C(=O)O)cc2)[C@H]1CCCCCCC(=O)O` (relative stereo) [9-Oxo-13-trans-prostenoic acid p-carboxyphenylhydrazone], the 50% effective dose (ED50) in test [1] was found to be 0.931 mg/kg; in test [2], 5.55 mg/kg; in test [3], 3.2 mg/kg.
On to `CCCCCC/C=C/[C@@H]1CC[C@@H](O)[C@H]1CCCCCCC(=O)O` (relative stereo) [9α-hydroxy-13-trans-prostenoic acid], for which the ED50 in test [1] turned out to be 0.268 mg/kg; in test [2], 2.53 mg/kg; in test [3], 0.559 mg/kg.
In the case of `CCCCC/C=C/[C@H]1CCC(=O)[C@@H]1CCCCCCC(=O)OCC` (relative stereo) [ethyl 9-oxo-20-nor-13-trans-prostenoate], in test [4], the MIC came out at 62 µg/mL (≈ 184 µM). The same compound displayed a minimal effective dose in the test with diastolic blood pressure of 0.6 mg/kg.
`CCOC(=O)CCCCCC[C@H]1C(=O)CC[C@@H]1/C=C/CCCC(C(=O)OCC)C(=O)OCC` (relative stereo) [ethyl 20,20-dicarbethoxy-9-oxo-18,19-dinor-13-trans-prostenoate]: in the test on gastric acid secretion, the inhibition in vivo at 100 mg/kg was found to be 38%. Besides, the MIC in test [4] is 250 µg/mL (≈ 536 µM). For the same compound, in the test on diastolic blood pressure, the minimal effective dose came out at 8 mg/kg.
Turning to `CCS(=O)(=O)CCC/C=C/[C@H]1CCC(=O)[C@@H]1CCCCCCC(=O)O` (relative stereo) [9-oxo-18-dioxythia-13-trans-prostenoic acid], the ED50 is 9.87 mg/kg in test [1], > 10 mg/kg in test [2] and > 10 mg/kg in test [3].
For `CCCCCC/C=C/[C@H]1CC(C)C(=O)[C@@H]1CCCCCCC(=O)O` (stereo partly drawn) [9-oxo-10-methyl-13-trans-prostenoic acid], the ED50 was 0.303 mg/kg in test [1], 73.2 mg/kg in test [2] and 1.84 mg/kg in test [3].
For the compound `C=C1CC[C@@H](/C=C/CCCCCC)[C@@H]1CCCCCCC(=O)O` (relative stereo) [9-methylene-13-trans-prostenoic acid, 9-Methylene-13-trans-prostenoic acid], the ED50 in test [1] is 1.45 mg/kg; in test [2], > 10 mg/kg; in test [3], 14.1 mg/kg.
